Experimental data taken from PMC6009956, “Design, synthesis and biological activity of N^4-phenylsubstituted-7H-pyrrolo[2,3-d]pyrimidin-4-amines as dual inhibitors of aurora kinase A and epidermal growth factor receptor kinase” (Journal of Enzyme Inhibition and Medicinal Chemistry, 2017).
Like-named read-outs stand apart in the source and are kept apart here. Values belong to the molecule of their own block, whether it stands above or below them.

Tests used:
[1] = tested on: p-HH3 in FADU and SAS SCCHN cell lines; test: Western blot of p-HH3 in FADU and SAS cells; type: cell-based; settings: 10 nM
Description: Protein extracts (50 μg per lane) were electrophoretically separated on SDS-PAGE gels, transferred to membranes (Protran, Schleicher & Schuell, Dassel, Germany) and blotted with specific antibodies (actin, aurora A, aurora B: all from Sigma, Munich, Germany; S10-HH3: Millipore, Schwalbach, Germany; EGFR: Santa Cruz, Heidelberg, Germany; pEGFR: Invitrogen, Darmstadt, Germany; pAKT, pERK: both from New England Biolabs, Frankfurt, Germany).
Figure 4. Effects of compound 2 on EGFR and aurora kinases in growing SCCHN cell lines (A) Western blot analysis of EGFR (pEGFR, pERK, p-AKT) and aurora A (p-HH3) downstream target proteins following incubation with 100 μM compound 2 for the indicated time points in BHY and FADU SCCHN cell lines. (B) BHY and CAL cell lines treated for the indicated time points with 200 nM cetuximab. Western blot analysis of EGFR downstream targets. (long exposure and short exposure). […] Western blot analysis of p-HH3 at the indicated time points. Asterisk (*) represents unspecific band.

[2] = biological target: T1, aurora A kinase (AURKA) (Homo sapiens, UniProt O14965); test: ADP-Glo kinase assay, Aurora A; type: biochemical
T1 construct: purchased BPS Bioscience (assay run externally by the vendor)
T1 sequence (O14965 1-403): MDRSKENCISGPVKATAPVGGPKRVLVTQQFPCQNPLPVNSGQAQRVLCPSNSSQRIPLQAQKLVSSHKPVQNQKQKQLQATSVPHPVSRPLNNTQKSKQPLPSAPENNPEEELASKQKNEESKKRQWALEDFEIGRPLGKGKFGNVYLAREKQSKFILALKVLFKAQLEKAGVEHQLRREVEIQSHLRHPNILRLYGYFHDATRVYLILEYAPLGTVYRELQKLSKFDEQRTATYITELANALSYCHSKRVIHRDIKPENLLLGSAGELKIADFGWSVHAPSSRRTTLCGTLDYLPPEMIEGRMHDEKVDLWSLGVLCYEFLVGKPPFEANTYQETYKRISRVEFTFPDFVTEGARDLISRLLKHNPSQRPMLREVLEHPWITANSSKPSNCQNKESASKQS

[3] = biological target: EGFR (Homo sapiens, UniProt P00533); test: ADP-Glo kinase assay, EGFR; type: biochemical; design: purchased BPS Bioscience (assay run externally by the vendor)
EGFR, sequence (P00533 25-1210): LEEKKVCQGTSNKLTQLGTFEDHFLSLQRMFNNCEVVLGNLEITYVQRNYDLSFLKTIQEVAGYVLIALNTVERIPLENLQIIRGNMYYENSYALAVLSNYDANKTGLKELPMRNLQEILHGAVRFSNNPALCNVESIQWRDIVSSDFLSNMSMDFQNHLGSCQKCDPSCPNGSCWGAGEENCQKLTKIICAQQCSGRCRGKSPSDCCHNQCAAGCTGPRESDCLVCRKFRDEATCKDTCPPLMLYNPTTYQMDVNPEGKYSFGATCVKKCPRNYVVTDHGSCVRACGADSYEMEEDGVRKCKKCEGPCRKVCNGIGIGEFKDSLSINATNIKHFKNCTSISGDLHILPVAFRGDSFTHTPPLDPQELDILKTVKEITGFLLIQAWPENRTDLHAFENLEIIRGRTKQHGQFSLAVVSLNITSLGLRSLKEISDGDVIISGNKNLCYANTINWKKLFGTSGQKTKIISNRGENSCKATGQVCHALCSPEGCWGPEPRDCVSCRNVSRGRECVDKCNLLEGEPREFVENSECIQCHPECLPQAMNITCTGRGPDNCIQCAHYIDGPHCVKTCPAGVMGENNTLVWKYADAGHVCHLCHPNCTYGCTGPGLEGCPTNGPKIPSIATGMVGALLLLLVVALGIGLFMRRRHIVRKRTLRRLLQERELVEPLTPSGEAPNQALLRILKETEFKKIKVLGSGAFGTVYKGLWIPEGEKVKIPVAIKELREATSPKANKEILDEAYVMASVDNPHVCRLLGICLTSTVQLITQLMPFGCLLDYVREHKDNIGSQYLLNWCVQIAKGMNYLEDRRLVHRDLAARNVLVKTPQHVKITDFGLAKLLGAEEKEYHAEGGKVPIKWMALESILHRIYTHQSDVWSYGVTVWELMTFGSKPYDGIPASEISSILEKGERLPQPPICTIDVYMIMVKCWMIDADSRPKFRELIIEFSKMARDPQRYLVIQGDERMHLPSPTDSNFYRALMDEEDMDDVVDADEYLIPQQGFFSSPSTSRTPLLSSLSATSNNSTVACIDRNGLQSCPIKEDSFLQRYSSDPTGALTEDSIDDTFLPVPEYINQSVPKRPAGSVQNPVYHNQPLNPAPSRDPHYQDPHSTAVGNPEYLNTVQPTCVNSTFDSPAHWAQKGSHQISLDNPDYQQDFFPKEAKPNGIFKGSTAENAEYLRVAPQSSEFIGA

SMILES: COc1cc(Nc2ncc3c(n2)-c2ccc(Cl)cc2C(c2c(F)cccc2OC)=NC3)ccc1C(=O)O [MLN8237]
Histone H3 phosphorylation (p-HH3) [1]: inhibition of histone H3 phosphorylation

Fold better than compound 17 against AURKA [2]: approximately two-fold
IC50 ([2]; 10 µM ATP, triplicate, read-out: AURKA IC50 ± SD): 4950 ± 690 nM
IC50 ([2]; 10 µM ATP/0.2 mg/ml Kemptide, read-out: Aurora A IC50 (dose-response curve, supplement)): 5000 nM
Aurora A % Activity Set1 ([2]; Log[nM] 0): 110%
Aurora A % Activity Set2 ([2]; Log[nM] 0): 93%
Aurora A % Activity Set3 ([2]; Log[nM] 0): 104%
Aurora A % Activity Set1 ([2]; Log[nM] 1.0): 103%
Aurora A % Activity Set2 ([2]; Log[nM] 1.0): 93%
Aurora A % Activity Set3 ([2]; Log[nM] 1.0): 101%
Aurora A % Activity Set1 ([2]; Log[nM] 1.5): 105%
Aurora A % Activity Set2 ([2]; Log[nM] 1.5): 96%
Aurora A % Activity Set3 ([2]; Log[nM] 1.5): 105%
Aurora A % Activity Set1 ([2]; Log[nM] 2.0): 103%
Aurora A % Activity Set2 ([2]; Log[nM] 2.0): 93%
Aurora A % Activity Set3 ([2]; Log[nM] 2.0): 100%
Aurora A % Activity Set1 ([2]; Log[nM] 2.5): 90%
Aurora A % Activity Set2 ([2]; Log[nM] 2.5): 86%
Aurora A % Activity Set3 ([2]; Log[nM] 2.5): 93%
Aurora A % Activity Set1 ([2]; Log[nM] 3.0): 77%
Aurora A % Activity Set2 ([2]; Log[nM] 3.0): 73%
Aurora A % Activity Set3 ([2]; Log[nM] 3.0): 85%
Aurora A % Activity Set1 ([2]; Log[nM] 3.5): 51%
Aurora A % Activity Set2 ([2]; Log[nM] 3.5): 45%
Aurora A % Activity Set3 ([2]; Log[nM] 3.5): 47%
Aurora A % Activity Set1 ([2]; Log[nM] 4.0): 32%
Aurora A % Activity Set2 ([2]; Log[nM] 4.0): 30%
Aurora A % Activity Set3 ([2]; Log[nM] 4.0): 31%
Aurora A % Activity Set1 ([2]; Log[nM] 4.5): 29%
Aurora A % Activity Set2 ([2]; Log[nM] 4.5): 26%
Aurora A % Activity Set3 ([2]; Log[nM] 4.5): 26%
Aurora A % Activity Set1 ([2]; Log[nM] 5.0): 30%
Aurora A % Activity Set2 ([2]; Log[nM] 5.0): 26%
Aurora A % Activity Set3 ([2]; Log[nM] 5.0): 26%
IC50 ([3]; 10 µM ATP, triplicate, read-out: EGFR IC50 ± SD): 63.3 ± 4.58 nM
IC50 ([3]; 10 µM ATP/0.2 mg/ml Poly-Glu-Tyr, read-out: EGFR IC50 (dose-response curve, supplement)): 63.3 nM
EGFR % Activity Set1 ([3]; Log[nM] 0): 96%
EGFR % Activity Set2 ([3]; Log[nM] 0): 92%
EGFR % Activity Set3 ([3]; Log[nM] 0): 95%
EGFR % Activity Set1 ([3]; Log[nM] 1.0): 88%
EGFR % Activity Set2 ([3]; Log[nM] 1.0): 83%
EGFR % Activity Set3 ([3]; Log[nM] 1.0): 88%
EGFR % Activity Set1 ([3]; Log[nM] 1.5): 66%
EGFR % Activity Set2 ([3]; Log[nM] 1.5): 62%
EGFR % Activity Set3 ([3]; Log[nM] 1.5): 65%
EGFR % Activity Set1 ([3]; Log[nM] 2.0): 42%
EGFR % Activity Set2 ([3]; Log[nM] 2.0): 38%
EGFR % Activity Set3 ([3]; Log[nM] 2.0): 43%
EGFR % Activity Set1 ([3]; Log[nM] 2.5): 16%
EGFR % Activity Set2 ([3]; Log[nM] 2.5): 16%
EGFR % Activity Set3 ([3]; Log[nM] 2.5): 16%
EGFR % Activity Set1 ([3]; Log[nM] 3.0): 8%
EGFR % Activity Set2 ([3]; Log[nM] 3.0): 8%
EGFR % Activity Set3 ([3]; Log[nM] 3.0): 9%
EGFR % Activity Set1 ([3]; Log[nM] 3.5): 3%
EGFR % Activity Set2 ([3]; Log[nM] 3.5): 3%
EGFR % Activity Set3 ([3]; Log[nM] 3.5): 3%
EGFR % Activity Set1 ([3]; Log[nM] 4.0): 2%
EGFR % Activity Set2 ([3]; Log[nM] 4.0): 2%
EGFR % Activity Set3 ([3]; Log[nM] 4.0): 2%
EGFR % Activity Set1 ([3]; Log[nM] 4.5): 2%
EGFR % Activity Set2 ([3]; Log[nM] 4.5): 2%
EGFR % Activity Set3 ([3]; Log[nM] 4.5): 2%
EGFR % Activity Set1 ([3]; Log[nM] 5.0): 2%
EGFR % Activity Set2 ([3]; Log[nM] 5.0): 3%
EGFR % Activity Set3 ([3]; Log[nM] 5.0): 2%
SMILES: c1ccc(Cc2ccc(Nc3ncnc4[nH]ccc34)cc2)cc1 [Compound 18, N^4-(4-benzylphenyl)-7H-pyrrolo[2,3-d]pyrimidin-4-amine]
